Source: PubChem BioAssay AID1259408 (Genetic Toxicology Data Bank (GENE-TOX), 2018)
Activity calls are given as the source filed them. How the calls were made is not given here.

Test system: GENE-TOX genotoxicity assays, various organisms and cells
Assay: GENE-TOX mutagenicity studies
Conditions: for call: Assay Type: In vivo carcinogenicity studies
[1] = Species/Cell Type: Human, Assay Type: Sister-chromatid exchange (SCE) in vitro, Assay Code: SC1T, Evaluation Type: Evaluation B (Post-1980)
[2] = Species/Cell Type: Salmonella typhimurium (one or more of the five standard strains: TA98, TA100, TA1535, TA1537, and TA1538), Assay Type: Histidine reverse gene mutation, Ames assay, Assay Code: SALT, Evaluation Type: Evaluation A (Pre-1980)
[3] = Species/Cell Type: Bacillus subtilis (H17 vs M45), Assay Type: Rec-assay, spot test, DNA effects (bacterial DNA repair), Assay Code: REW+, Evaluation Type: Evaluation A (Pre-1980)
[4] = Species/Cell Type: Drosophila melanogaster, Assay Type: Sex-linked recessive lethal gene mutation, Assay Code: SRL-, Evaluation Type: Evaluation A (Pre-1980)
[5] = Species/Cell Type: Human lymphocytes, Assay Type: Sister-chromatid exchange (SCE) in vitro, Assay Code: SCLT, Evaluation Type: Evaluation B (Post-1980)
[6] = Species/Cell Type: Nonhuman, Assay Code: CCGT, Evaluation Type: Evaluation A (Pre-1980)
[7] = Species/Cell Type: Salmonella typhimurium (one or more of the five standard strains: TA98, TA100, TA1535, TA1537, and TA1538), Assay Type: Histidine reverse gene mutation, Ames assay, Assay Code: SAL+, Evaluation Type: Evaluation A (Pre-1980)
[8] = Species/Cell Type: Human lymphocytes, Assay Type: Sister-chromatid exchange (SCE) in vitro, Assay Code: SCL+D, Dose Response: With dose response, Evaluation Type: Evaluation B (Post-1980)
[9] = Species/Cell Type: Human, Assay Type: Sister-chromatid exchange (SCE) in vitro, Assay Code: SC1+D, Dose Response: With dose response, Evaluation Type: Evaluation B (Post-1980)

For `O=C1C(c2[nH]c3ccccc3c2O)=Nc2ccccc21`, the mutagenic call (Species/Cell Type: Mammalian polychromatic erythrocytes, Assay Type: Micronucleus test, chromosome aberrations, Assay Code: MNT-, Evaluation Type: Evaluation B (Post-1980)) was “inactive; negative”.

With `Nc1c(Cl)cc([N+](=O)[O-])cc1Cl` the mutagenic call (Species/Cell Type: Aspergillus nidulans, Assay Type: Aneuploidy, chromosome aberrations, Assay Code: ASNT, Evaluation Type: Evaluation A (Pre-1980)) was “no conclusion”, the mutagenic call (Species/Cell Type: Bacillus subtilis (H17 vs M45), Assay Type: Rec-assay, spot test, DNA effects (bacterial DNA repair), Assay Code: REWT, Evaluation Type: Evaluation A (Pre-1980)) was “no conclusion” and the mutagenic call (Species/Cell Type: Hordeum vulgare (barley), Assay Type: Chromosome aberrations, Assay Code: HOC+, Evaluation Type: Evaluation A (Pre-1980)) was “active; positive”. For the same molecule, the mutagenic call (Species/Cell Type: Vicia faba, Assay Type: Chromosome aberrations, Assay Code: VIC+, Evaluation Type: Evaluation A (Pre-1980)) was “active; positive”.

`CN1C(=O)CN=C(c2ccccc2)c2cc(Cl)ccc21` was tested, and the mutagenic call (Species/Cell Type: Human lymphocytes, Assay Type: Sister-chromatid exchange (SCE) in vivo, Assay Code: SCY+, Evaluation Type: Evaluation B (Post-1980)) was “active; positive”, the mutagenic call [1] was “no conclusion” and the mutagenic call (Species/Cell Type: Mammalian polychromatic erythrocytes, Assay Type: Micronucleus test, chromosome aberrations, Assay Code: MNTT, Evaluation Type: Evaluation A (Pre-1980)) was “no conclusion”. For the same molecule, the mutagenic call [2] was “no conclusion” and the mutagenic call (Species/Cell Type: Salmonella typhimurium, Assay Type: Forward and reverse gene mutation, body fluid assay, Assay Code: BFU+, Evaluation Type: Evaluation A (Pre-1980)) was “active; positive”.

`COC(=O)COc1ccc(Br)cc1CCl` (tested in a mixture with another compound) was tested, and the mutagenic call (Species/Cell Type: Saccharomyces cerevisiae, Assay Type: Reverse gene mutation, Assay Code: YER+, Evaluation Type: Evaluation A (Pre-1980)) was “active; positive”.

`Cc1ccc2nc3ccccc3cc2c1` was tested, and the mutagenic call (Species/Cell Type: Saccharomyces cerevisiae, Assay Type: Forward gene mutation, Assay Code: YEFT, Evaluation Type: Evaluation A (Pre-1980)) was “no conclusion”.

`OCC(Br)(Br)Br` was tested, and the mutagenic call (Species/Cell Type: Rodents, Sex: Female, Assay Type: Dominant lethal test, Assay Code: DLTF-, Evaluation Type: Evaluation A (Pre-1980)) was “inactive; negative” and the mutagenic call (Species/Cell Type: Rodents, Sex: Male, Assay Type: Dominant lethal test, Assay Code: DLT-, Evaluation Type: Evaluation A (Pre-1980)) was “inactive; negative”.

In the case of `C1C2OC2C2OC12` (centres undefined), the mutagenic call (Species/Cell Type: Neurospora crassa, Assay Type: Forward gene mutation, Assay Code: NEF+, Evaluation Type: Evaluation A (Pre-1980)) is reported as “active; positive”.

With `COc1ccc(/C=N/NC(=O)COc2ccc(Br)cc2CN(C)C)cc1` the mutagenic call (Species/Cell Type: Saccharomyces cerevisiae, Assay Type: Reverse gene mutation, Assay Code: YERT, Evaluation Type: Evaluation A (Pre-1980)) was “no conclusion”.

For `COP(=O)(OC)OC=C(Cl)Cl`, the mutagenic call (Species/Cell Type: Allium cepa, Assay Type: Chromosome aberrations, Assay Code: ALC+D, Dose Response: With dose response, Evaluation Type: Evaluation A (Pre-1980)) was “active; positive”, the mutagenic call [3] was “active; positive” and the mutagenic call [4] was “inactive; negative”. For the same molecule, the mutagenic call (Species/Cell Type: Escherichia coli WP2, Assay Type: Tryptophan reverse gene mutation, Assay Code: WP2+, Evaluation Type: Evaluation A (Pre-1980)) was “active; positive”, the mutagenic call (Species/Cell Type: Escherichia coli WP2 UVRA, Assay Type: Tryptophan reverse gene mutation, Assay Code: WPU+, Evaluation Type: Evaluation A (Pre-1980)) was “active; positive” and the mutagenic call (Species/Cell Type: Escherichia coli polA (W3119 vs P3478), Assay Type: Rec-assay, DNA effects (bacterial DNA repair), Assay Code: RE1+, Evaluation Type: Evaluation A (Pre-1980)) was “active; positive”. The mutagenic call (Species/Cell Type: Human lymphocytes, Assay Type: Sister-chromatid exchange (SCE) in vitro, Assay Code: SCL-, Evaluation Type: Evaluation A (Pre-1980)) was “inactive; negative”, the mutagenic call [5] was “no conclusion” and the mutagenic call (Species/Cell Type: Human, Assay Type: Sister-chromatid exchange (SCE) in vitro, Assay Code: SC1-, Evaluation Type: Evaluation A (Pre-1980)) was “inactive; negative”. The mutagenic call [1] was “no conclusion”, the mutagenic call (Species/Cell Type: Mammalian germ cells, Sex: Male, Assay Type: Chromosome aberrations in vivo, Assay Code: CY9-, Evaluation Type: Evaluation A (Pre-1980)) was “inactive; negative” and the mutagenic call (Species/Cell Type: Mammalian polychromatic erythrocytes, Assay Type: Micronucleus test, chromosome aberrations, Assay Code: MNTT, Evaluation Type: Evaluation B (Post-1980)) was “no conclusion”. For the same molecule, the mutagenic call (Species/Cell Type: Mouse, Sex: Male, Assay Type: Sperm morphology, Assay Code: SPIT, Evaluation Type: Evaluation A (Pre-1980)) was “no conclusion”, the mutagenic call (Species/Cell Type: Nonhuman bone marrow, Assay Type: Chromosome aberrations, in vivo, Assay Code: CY#-, Evaluation Type: Evaluation A (Pre-1980)) was “inactive; negative” and the call [6] was “no conclusion”. The mutagenic call (Species/Cell Type: Nonhuman, Assay Type: Sister-chromatid exchange (SCE) in vitro, Assay Code: SC2+D, Dose Response: With dose response, Evaluation Type: Evaluation B (Post-1980)) was “active; positive”, the mutagenic call (Species/Cell Type: Nonhuman, Assay Type: Sister-chromatid exchange (SCE) in vivo, Assay Code: SC3-, Evaluation Type: Evaluation B (Post-1980)) was “inactive; negative” and the mutagenic call (Species/Cell Type: Rodents, Sex: Male, Assay Type: Dominant lethal test, Assay Code: DLTT, Evaluation Type: Evaluation A (Pre-1980)) was “no conclusion”. For the same molecule, the mutagenic call (Species/Cell Type: Saccharomyces cerevisiae, Assay Type: Mitotic recombination or gene conversion, Assay Code: YEC+, Evaluation Type: Evaluation A (Pre-1980)) was “active; positive”, the mutagenic call [7] was “active; positive” and the mutagenic call (Species/Cell Type: Salmonella typhimurium, Serratia marcesens, Saccharomyces cerevisiae, Assay Type: Forward and reverse gene mutation, mitotic recombination and gene conversion, DNA effects, host-mediated assay, Assay Code: HM5-, Evaluation Type: Evaluation A (Pre-1980)) was “inactive; negative”.

For `C[C@H](CCC(=O)O)[C@H]1CC[C@H]2[C@@H]3CC[C@@H]4C[C@H](OS(=O)(=O)O)CC[C@]4(C)[C@H]3CC[C@]12C`, the mutagenic call (Species/Cell Type: Syrian hamster embryo (SHE) cells, Assay Type: Cell transformation, clonal assay, Assay Code: CTC-, Evaluation Type: Evaluation A (Pre-1980)) was “inactive; negative”.

For `Cc1cc2nc3ccc(=[N+](C)C)cc-3sc2cc1N`, the mutagenic call (Species/Cell Type: Bacillus subtilis (H17 vs M45T), Assay Type: Rec-assay, spot test, DNA effects (bacterial DNA repair), Assay Code: REXT, Evaluation Type: Evaluation A (Pre-1980)) was “no conclusion” and the mutagenic call (Species/Cell Type: Saccharomyces cerevisiae, Assay Type: Mitotic recombination or gene conversion, Assay Code: YECT, Evaluation Type: Evaluation A (Pre-1980)) was “no conclusion”.

`[2H]C1([2H])CNP(=O)(N(CCCl)CCCl)OC1` (centres undefined) was tested, and the mutagenic call (Species/Cell Type: Nonhuman, Assay Type: Sister-chromatid exchange (SCE) in vitro, Assay Code: SC2+D*, Activation: With metabolic activation, Dose Response: With dose response, Evaluation Type: Evaluation B (Post-1980)) was “active; positive”.

In the case of `NCCNc1cccc2ccccc12`, the call (Species/Cell Type: Nonhuman, Assay Code: CCG-, Evaluation Type: Evaluation A (Pre-1980)) is reported as “inactive; negative”.

For `CC(C)CN(N=O)/C(N)=N/[N+](=O)[O-]`, the mutagenic call (Species/Cell Type: Arabidopsis species, Assay Type: Gene mutation, Assay Code: ARM+, Evaluation Type: Evaluation A (Pre-1980)) was “active; positive” and the mutagenic call [7] was “active; positive”.

For `O=[N+]([O-])[O-].O=[N+]([O-])[O-].O=[N+]([O-])[O-].[Rh+3]`, the mutagenic call [3] was “active; positive”.

In the case of `CN(C)CCCN1c2ccccc2Sc2ccc(Cl)cc21`, the mutagenic call (Species/Cell Type: Chinese hamster lung (V79) cells, Assay Type: Forward gene mutation at the HPRT or ouabain locus, Assay Code: V79-, Evaluation Type: Evaluation A (Pre-1980)) is reported as “inactive; negative”, the mutagenic call [8] is reported as “active; positive” and the mutagenic call [9] is reported as “active; positive”. For the same molecule, the call [6] was “no conclusion”, the mutagenic call (Species/Cell Type: Nonhuman, Assay Type: Sister-chromatid exchange (SCE) in vitro, Assay Code: SC2+D, Dose Response: With dose response, Evaluation Type: Evaluation A (Pre-1980)) was “active; positive” and the mutagenic call (Species/Cell Type: Nonhuman, Assay Type: Sister-chromatid exchange (SCE) in vivo, Assay Code: SC3T, Evaluation Type: Evaluation B (Post-1980)) was “no conclusion”.

With `COc1cc(S(=O)(=O)O)c(C)cc1N=Nc1c(O)ccc2cc(S(=O)(=O)O)ccc12` the mutagenic call [4] was “inactive; negative” and the mutagenic call (Species/Cell Type: Salmonella typhimurium (one or more of the five standard strains: TA98, TA100, TA1535, TA1537, and TA1538), Assay Type: Histidine reverse gene mutation, Ames assay, Assay Code: SAL-, Evaluation Type: Evaluation A (Pre-1980)) was “inactive; negative”.

For `CN1CCN(CCCN2c3ccccc3Sc3ccccc32)CC1`, the mutagenic call [5] was “no conclusion” and the mutagenic call [1] was “no conclusion”.

`NC1C(O)[C@@H](O)C(CO)O[C@@H]1O` (some centres undefined) was tested, and the mutagenic call (Species/Cell Type: Escherichia coli WP2, Assay Type: Tryptophan reverse gene mutation, Assay Code: WP2-, Evaluation Type: Evaluation A (Pre-1980)) was “inactive; negative”.

In the case of `O=[N+]([O-])c1ccc(C2CO2)cc1` (centres undefined), the mutagenic call [8] is reported as “active; positive” and the mutagenic call [9] is reported as “active; positive”.

In the case of `O=C1CCc2c1c(=O)oc1c3c(cc(O)c21)O[C@H]1OC=C[C@@H]31`, the mutagenic call [2] is reported as “no conclusion”.
